Experimental data taken from patent US20210337838A1, “RECOMBINANT EXPRESSION OF FUMONISIN AMINE OXIDASE” (priority 2018, published 2021).
Where a chain is given by its changes, count along the chain named. Like-named read-outs stand apart in the source and are kept apart here.

What was measured:
AnFAO_15309 [1] = target: T1, AnFAO_15309 (Aspergillus niger, UniProt A2R252); type: biochemical; conditions: 20 nM enzyme, 50 μM substrate, pH 7.0, 1 hr
Experimental: (§1) Absorbance was monitored at 571 nm every 10 mins for 1 hr. A standard curve consisting of 0-10 μM H2O2 was included to determine the absorbance for every μmol of H2O2 generated by the reaction.

AnFAO_15309 [2] = target: T1, AnFAO_15309; test: Kinetic analysis of recombinant AnFAO_15309; type: biochemical
Experimental: as §1
The resulting mixture was twice extracted with equal volumes of ethyl acetate, dried, and re-suspended in reaction buffer.

[3] = system: fumonisin deamination activity from A. niger culture supernatants; test: Fumonisin chemotype preference of deamination activity, reverse-phase LC-MS; type: biochemical, Aspergillus niger; conditions: for initial conversion rate of intact to deaminated fumonisin: FB1 and FB2 co-incubated at 37° C. with active sample following high-resolution ion exchange, n=2
Experimental: After each step, protein fractions were assayed for deamination activity by monitoring their ability to convert intact FB2 into FPy2 via reverse-phase liquid chromatography/mass spectrometry (LC-MS), as shown in FIG. 2. In particular, all MS data were collected with a Q-Exactive™ Quadrupole Orbitrap™ mass spectrometer (Thermo Scientific, MA, USA) coupled to an Agilent 1290 ultra-high-performance liquid chromatography (UHPLC) system. Fumonisins were resolved on a Zorbax™ Eclipse Plus Rapid Resolution High Definition (RRHD) C18 column (2.1×50 mm, 1.8 μm; Agilent Technologies, CA, USA), maintained at 35° C. The mobile phase was comprised of water with 0.1% formic acid (A), and acetonitrile with 0.1% formic acid (B) (Optima grade, Fisher Scientific, NJ, USA). The gradient consisted of 0% B for 0.5 min before increasing to 100% over 3 min, held at 100% for 2.5 min and reduced to 0% over 0.5 min. The fumonisins were detected in negative ionization mode using the following electrospray conditions: capillary voltage, 4.0 kV; capillary temperature, 400° C.; sheath gas, 17.00 units; auxiliary gas, 8.00 units; probe heater temperature, 450° C.; S Lens RF level, 45.00. The data-dependent acquisition method involved a full MS scan at 17,500 resolution over a scan range of 140-760 m/z; automatic gain control (AGC) target and maximum injection time (max IT) was 5×10^6 and 64 ms, respectively. The five highest intensity ions from the full scan (excluding isotopes) were sequentially selected using a 1.2 m/z isolation window and analyzed at a resolution of 17,500; AGC target, 1×10^5; max IT, 64 ms; normalized collision energy (NCE) 30; threshold intensity 9.1×10^4; and dynamic exclusion of 1.5 s. Fumonisins were detected by accurate mass (±5 ppm) and retention time (±0.1 min) and verified by MS/MS.
All samples assayed during protein purification were incubated at 37° C. with 1 μM FB2 (Sigma) unless stated otherwise. Reactions were terminated via addition of a 10-fold volume excess of 50% (v:v) methanol in water prior to reverse-phase LC/MS analysis represented in FIG. 2.

[4] = substrate: CCCC[C@@H](C)[C@@H](O)[C@@H](O)C[C@@H](C)C[C@H](O)CCCC[C@@H](O)C[C@H](O)[C@H](C)N; test: purified protein, by the assay type; conditions: other: recombinant AnFAO_15309; pH 7.0
[5] = substrate: CCCCCCCCCCCCCCC[C@@H](O)[C@@H](N)CO; test: purified protein, by the assay type; conditions: other: recombinant AnFAO_15309; pH 7.0
[6] = Amplex red assay of AnFAO homolog clones; type: biochemical; conditions: 80 nM enzyme, 25 μM FB1, pH 7
From the text: Seven of the AnFAO homologs were synthesized and cloned into the MBP-TEV vector for recombinant expression in E. coli.

For NCc1ccccc1 [benzylamine], the “relative activity, relative to FB3 (100% activity)” value (from here on “relative activity … (100% activity)”) (AnFAO_15309 [1]) was 1.4%.

In the case of NCCc1ccc(O)c(O)c1 [dopamine], the “relative activity … (100% activity)” value (AnFAO_15309 [1]) is reported as 9.7%.

For NCCCC[C@H](N)C(=O)O [lysine], the “relative activity … (100% activity)” value (AnFAO_15309 [1]) was 6.3%.

For NCCc1c[nH]c2ccc(O)cc12 [serotonin], the “relative activity … (100% activity)” value (AnFAO_15309 [1]) was 3.7%.

With NCCCCNCCCN [spermidine] the “relative activity … (100% activity)” value (AnFAO_15309 [1]) was 1.4%.

For NCCCNCCCCNCCCN [spermine], the “relative activity … (100% activity)” value (AnFAO_15309 [1]) was 1.9%.

In the case of Fumonisin B1 [FB1], the “fold change (efficiency compared to FB2)” value (AnFAO_15309 [2]; kcat/KM relative to FB2 = 1.0) is reported as 0.3 fold and the “initial conversion rate of intact to deaminated fumonisin” value [3] is reported as 2.1±0.1 % hr^−1.

In the case of CCCCCCCCCCCCCCC[C@@H](O)[C@@H](N)CO [sphinganine], the “fold change (efficiency compared to FB2)” value (AnFAO_15309 [2]) is reported as 16.6 fold and the kcat (AnFAO_15309 [2]; recombinant AnFAO_15309) is reported as 0.612 s⁻¹.

With CCCC[C@@H](C)[C@@H](OC(=O)C[C@@H](CC(=O)O)C(=O)O)[C@H](C[C@@H](C)CCCCCC[C@@H](O)C[C@H](O)[C@H](C)N)OC(=O)C[C@@H](CC(=O)O)C(=O)O [FB2, fumonisin B2] the “fold change (efficiency compared to FB2)” value (AnFAO_15309 [2]; kcat/KM relative to FB2 = 1.0) was 1.0 fold, the Km (AnFAO_15309 [2]; recombinant AnFAO_15309) was 195 µM and the kcat (AnFAO_15309 [2]; recombinant AnFAO_15309) was 0.228 s⁻¹. The “efficiency at deaminating FB2 compared to FB1” value (AnFAO_15309 [2]; relative to FB1) was 3.2 fold, the “increase in catalytic efficiency (kcat) FB2 vs. FB1” value (AnFAO_15309 [2]; relative to FB1) was about 1.6 fold and the “stronger affinity (KM) FB2 vs. FB1” value (AnFAO_15309 [2]; relative to FB1) was about 2 fold. For the same molecule, the “initial conversion rate of intact to deaminated fumonisin” value [3] was 24.3±1.5 % hr^−1 and the “chemotype preference for FB2 compared to FB1” value ([3]; co-incubation of FB1 and FB2 at 37° C.) was “order of magnitude”.

With CCCC[C@@H](C)[C@@H](OC(=O)CC(CC(=O)O)C(=O)O)[C@H](C[C@@H](C)C[C@H](O)CCCCCC[C@@H](O)[C@H](C)N)OC(=O)CC(CC(=O)O)C(=O)O (stereo partly shown) [FB3] the “relative activity … (100% activity)” value (AnFAO_15309 [1]) was 100%.

With CCCC[C@@H](C)[C@@H](O)[C@@H](O)C[C@@H](C)C[C@H](O)CCCC[C@@H](O)C[C@H](O)[C@H](C)N [hFB1] the “fold change (efficiency compared to FB2)” value (AnFAO_15309 [2]; kcat/KM relative to FB2 = 1.0) was 4.6 fold and the kcat (AnFAO_15309 [2]; recombinant AnFAO_15309) was 0.298 s⁻¹.

In the case of CCCN [propylamine], the “relative activity … (100% activity)” value (AnFAO_15309 [1]) is reported as 5.6%.

With NCCc1ccc(O)cc1 [tyramine] the “relative activity … (100% activity)” value (AnFAO_15309 [1]) was 5.8%.

For N[C@H]1C(O)O[C@H](CO)[C@@H](O)[C@@H]1O (stereo partly shown) [glucosamine], the “relative activity … (100% activity)” value (AnFAO_15309 [1]) was 1.2%.

B1: AnFAO_15309 (Aspergillus niger CBS 513.88) (protein)
chain: MSVSNDPTTKLYDAVIVGAGLSGLQAAHSIQAAGFSVCILEATDRMGGKTLTVKSSEKGYNDLGAAWVNDTNQTEIFKLHQRYGLDGVVQYTCGDDILESGEGVIRKIPYGLPLTGLPKKLLDILRIESSRLDLDDPTSFPGATEVDNLTFRDFCVEKTGSEDVIHITDAISTALLGLNSNELSALYMLYYFKSGSGIDNLLSDERDGAQYLRTRQGTQTIARKMADELTQSDIFLGMPVTSINQTDADAHCVVQTLDGSSFRCRRVIVSIPTTLYRSVSFHPPLPHAKQVLSDHTIMGYYSKVIFIFKEPWWRDAGLTGIVNCAGGPITFTRDTSVPTDDQWSITCFMVGSRGRAWSKLSKDDRYSQVWEQFRRCFEEFVENIPEPVNTLEMEWSKEPYFLGAPCPAMIPGLLTTAGSDLAAPHGKVHFIGTETSTVWRGYMEGAIRAGQRGGAEVVTALQED
B1 showed a Km [4] of 55.2 µM, a kcat [4] of 0.298 s⁻¹ and a kcat/Km [4] of 5400 M⁻¹ s⁻¹. The Km [5] was 31.4 µM, the kcat [5] was 0.612 s⁻¹ and the kcat/Km [5] was 19000 M⁻¹ s⁻¹.

B2: AnFAO_7097: AnFAO homolog clone, SEQ ID NO: 29 (protein)
chain: B1 chain with M46V, R82Q, N323D, F377L, E379G, V388A, A417T
modifications: Aspergillus niger
For B2, the “activity compared to 15309” value [6] was 27%.
